# Measurements: patent US20160229835A1, “NOVEL PYRIDYLOXYACETYL TETRAHYDROISOQUINOLINE COMPOUNDS USEFUL AS NAMPT INHIBITORS” (ELI LILLY AND COMPANY, priority 2013, published 2016)
# Test system: A2780 Cancer Cells
# Experiment: LC-MS Analysis of NAD+ and Carbohydrate Metabolites in A2780 Cancer Cells
# Type: cell-based
# Conditions: A2780 cells, 24 hours
# Method: The purpose of this assay is to measure effects of NAMPT inhibitors on NAD^+ formation in cancer cells. LC-MS analysis of NAD^+ metabolites: nicotinamide mononucleotide (NMN), NAD^+, reduced nicotinamide adenine dinucleotide (NADH), and nicotinamide adenine dinucleotide phosphate (NADP) is performed on an HPLC system coupled to a Thermo Quantum Ultra triple quadrupole mass spectrometer operated in positive heated electrospray mode with selected reaction monitoring detection. For cell extracts, 50 μL of extract and 10 μL of 10 μM internal standard (IS) solution is transferred to a 96-well plate, dried under nitrogen and reconstituted in 50 μL of water. For tissue extracts, 20 μL of extract and 10 μL of IS solution are dried and reconstituted in 50 μL water. The IS solution contains 10 μM nicotinamide-d4 (C/D/N Isotopes), nicotinic acid-d4 (C/D/N Isotopes), nicotinamide mononucleotide-d4 (prepared by custom synthesis) and nicotinamide 1,N^6-ethenoadenine dinucleotide in methanol. The metabolites are separated on a Waters XBRIDGE™ Amide (2.1×50 mm, 3 μm) with an injection volume of 10 μL and a flow rate of 1 mL/minute using 10 mM ammonium acetate in 95% acetonitrile for mobile phase A and 10 mM ammonium acetate in 50% acetonitrile for mobile phase B. The gradient is as follows: 0 minutes, 0% B; 2.5 minutes, 70% B; 2.51 minutes, 100% B; 2.8 minutes, 100% B; 2.81 minutes, 0% B, 3.6 minutes, 0% B.
# The purpose of this assay is to measure effects of NAMPT inhibitors on the levels of metabolites such as glucose-6-phosphate/fructose-6-phosphate/fructose-1-phosphate collectively as hexose phosphate (HP), fructose-1,6-bisphosphate (FBP), glyceraldehyde-3-phosphate (G3P), dihydroxyacetone phosphate (DHAP), 3-phosphoglycerate (3PG), 2-phosphoglycerate (2PG), phosphoenoylpyruvate (PEP), gluconate-6-phosphate (GN6P), xylulose-5-phosphate (X5P), ribulose-5-phosphate (Ru5P), ribose-5-phosphate (R5P), sedoheptulose-7-phosphate/sedoheptulose-1-phosphate collectively as sedoheptulose phosphate (SP), erythrose-4-phosphate (E4P), and α-ketoglutarate (α-KG) derived from glycolysis, the TCA cycle, and the pentose-phosphate pathway in tumor cells. Cells (50,000/well) are grown as described above in 100 μL of Dulbecco's Modified Eagle Medium supplemented with 10% FBS (dialyzed) and 25 mM glucose, and treated with a compound in triplicates in the presence or absence of 10 μM nicotinic acid. After 24 hours of treatment, the growth medium is removed and 200 μL of 80% methanol is added to each well. After incubation at room temperature for 15 minutes, the resulting extracts are transferred to 96-deep-well plates and washed twice with 200 μL of 80% methanol/water. Then, the plates are heat sealed and stored at −80° C., or dried and reconstituted in 100 μL of 25 μM ethylenediaminetetraacetic acid and injected into LC-MS for analysis.
# The LC-MS analysis for carbohydrate metabolites is performed as follows. Chromatographic separations are performed with an HPLC system, which is coupled to an AB Sciex triple quadrupole LC-MS mass spectrometer. Analytes with phosphates are analyzed as follows. The samples are dried and reconstituted in ACN/water solutions and are separated on a Phenomenex Luna amino HPLC column (2.1×30 mm 3 μm) under the conditions as described by Yuan et al. (Nature Protocols, 2012, […], 872-881.). The mass spectrometer is operated under negative ESI MRM mode.
smiles,measurement,setting,value
"COCCS(=O)(=O)Nc1ccc2c(c1)CCN(C(=O)COc1cccnc1)C2 [Example 2, 2-Methoxy-N-[2-[2-(3-pyridyloxy)acetyl]-3,4-dihydro-1H-isoquinolin-6-yl]ethanesulfonamide]",Metabolite Levels (μM) DHAP,compound 0.000508 μM,0.5 µM
same,Metabolite Levels (μM) FBP,compound 0.000508 μM,1.4 µM
same,Metabolite Levels (μM) HP,compound 0.000508 μM,1.6 µM
same,Metabolite Levels (μM) NAD,compound 0.000508 μM,0.527 µM
same,Metabolite Levels (μM) SP,compound 0.000508 μM,0.2 µM
same,Metabolite Levels (μM) DHAP,compound 0.00152 μM,0.9 µM
same,Metabolite Levels (μM) FBP,compound 0.00152 μM,1.8 µM
same,Metabolite Levels (μM) HP,compound 0.00152 μM,1.6 µM
same,Metabolite Levels (μM) NAD,compound 0.00152 μM,0.457 µM
same,Metabolite Levels (μM) SP,compound 0.00152 μM,0.2 µM
same,Metabolite Levels (μM) DHAP,compound 0.00457 μM,3.2 µM
same,Metabolite Levels (μM) FBP,compound 0.00457 μM,2.2 µM
same,Metabolite Levels (μM) HP,compound 0.00457 μM,1.6 µM
same,Metabolite Levels (μM) NAD,compound 0.00457 μM,0.255 µM
same,Metabolite Levels (μM) SP,compound 0.00457 μM,0.2 µM
same,Metabolite Levels (μM) DHAP,compound 0.0137 μM,6.3 µM
same,Metabolite Levels (μM) FBP,compound 0.0137 μM,3.2 µM
same,Metabolite Levels (μM) HP,compound 0.0137 μM,1.9 µM
same,Metabolite Levels (μM) NAD,compound 0.0137 μM,0.087 µM
same,Metabolite Levels (μM) SP,compound 0.0137 μM,0.3 µM
same,Metabolite Levels (μM) DHAP,compound 0.0412 μM,6.5 µM
same,Metabolite Levels (μM) FBP,compound 0.0412 μM,6.4 µM
same,Metabolite Levels (μM) HP,compound 0.0412 μM,2.8 µM
same,Metabolite Levels (μM) NAD,compound 0.0412 μM,0.039 µM
same,Metabolite Levels (μM) SP,compound 0.0412 μM,0.5 µM
same,Metabolite Levels (μM) DHAP,compound 0.123 μM,7.1 µM
same,Metabolite Levels (μM) FBP,compound 0.123 μM,15.5 µM
same,Metabolite Levels (μM) HP,compound 0.123 μM,7.2 µM
same,Metabolite Levels (μM) NAD,compound 0.123 μM,0.023 µM
same,Metabolite Levels (μM) SP,compound 0.123 μM,1.3 µM
same,Metabolite Levels (μM) DHAP,compound 0.37 μM,7.1 µM
same,Metabolite Levels (μM) FBP,compound 0.37 μM,22.8 µM
same,Metabolite Levels (μM) HP,compound 0.37 μM,11.0 µM
same,Metabolite Levels (μM) NAD,compound 0.37 μM,0.022 µM
same,Metabolite Levels (μM) SP,compound 0.37 μM,2.2 µM
same,Metabolite Levels (μM) DHAP,compound 1.111 μM,7.3 µM
same,Metabolite Levels (μM) FBP,compound 1.111 μM,24.1 µM
same,Metabolite Levels (μM) HP,compound 1.111 μM,11.8 µM
same,Metabolite Levels (μM) NAD,compound 1.111 μM,0.017 µM
same,Metabolite Levels (μM) SP,compound 1.111 μM,2.5 µM
same,Metabolite Levels (μM) DHAP,compound 3.333 μM,7.6 µM
same,Metabolite Levels (μM) FBP,compound 3.333 μM,23.4 µM
same,Metabolite Levels (μM) HP,compound 3.333 μM,12.8 µM
same,Metabolite Levels (μM) NAD,compound 3.333 μM,0.02 µM
same,Metabolite Levels (μM) SP,compound 3.333 μM,2.5 µM
same,Metabolite Levels (μM) DHAP,compound 10 μM,7.7 µM
same,Metabolite Levels (μM) FBP,compound 10 μM,21.5 µM
same,Metabolite Levels (μM) HP,compound 10 μM,10.9 µM
same,Metabolite Levels (μM) NAD,compound 10 μM,0.02 µM
same,Metabolite Levels (μM) SP,compound 10 μM,2.1 µM
